Measured values taken from patent US20230220443A1, “CHARACTERIZATION OF S-ADENOSYL-L-METHIONINE-CONSUMING ENZYMES WITH 1-STEP EZ-MTASE: A UNIVERSAL COUPLED-ASSAY” (ALBERT EINSTEIN COLLEGE OF MEDICINE, priority 2017, published 2023).
“Also recorded” adds a separate entry of the source.

Tests used:
[1] = molecular target: T1, deaminase TM0936 (Thermotoga maritima, UniProt Q9X034); assay: Deamination by coupling enzyme TM0936; assay type: biochemical
T1 construct: polyhistidine; made in house; host or cells: bacteria
T1 sequence (Q9X034 1-406): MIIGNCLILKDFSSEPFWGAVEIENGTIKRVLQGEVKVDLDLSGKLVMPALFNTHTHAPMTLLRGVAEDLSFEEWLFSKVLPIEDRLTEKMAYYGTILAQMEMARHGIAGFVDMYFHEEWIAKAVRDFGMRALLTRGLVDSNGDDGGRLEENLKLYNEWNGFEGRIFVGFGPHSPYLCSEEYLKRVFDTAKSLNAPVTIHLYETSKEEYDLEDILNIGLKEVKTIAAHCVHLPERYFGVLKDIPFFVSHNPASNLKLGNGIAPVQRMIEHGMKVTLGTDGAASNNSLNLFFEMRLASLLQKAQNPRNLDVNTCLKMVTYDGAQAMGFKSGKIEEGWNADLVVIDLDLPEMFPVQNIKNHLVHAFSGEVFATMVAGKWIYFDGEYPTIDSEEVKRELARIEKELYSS
Description: FIG. 9A-9D. Sinefungin is a positive control compatible with the 1-Step EZ-MTase assay. (A) MTAN-based assays catabolize the methyltransferase inhibitor sinefungin (SIN). […] (C) pH-dependence of the reaction between sinefungin and TM0936. […] (D) Inhibition of the sarcosine/dimethylglycine methyltransferase by sinefungin. […] The initial methyltransfer rates were recorded at 263 nm. Further analysis provided the inhibition constant Ki (1.8±0.4 μM).

[2] = molecular target: T2, NcDIM-5 (Neurospora crassa, UniProt Q8X225); settings: literature values; cited from earlier work
T2 construct: GST; made in house
T2 sequence (Q8X225 1-331): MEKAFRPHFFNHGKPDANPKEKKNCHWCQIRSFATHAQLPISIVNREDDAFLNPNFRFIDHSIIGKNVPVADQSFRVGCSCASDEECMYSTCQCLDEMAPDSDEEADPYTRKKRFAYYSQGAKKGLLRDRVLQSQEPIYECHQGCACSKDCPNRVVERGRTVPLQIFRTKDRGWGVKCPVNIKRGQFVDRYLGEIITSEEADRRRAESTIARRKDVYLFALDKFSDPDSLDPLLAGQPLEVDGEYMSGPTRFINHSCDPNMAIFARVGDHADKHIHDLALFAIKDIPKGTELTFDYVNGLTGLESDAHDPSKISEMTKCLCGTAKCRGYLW

Q: With `C[S+](CC[C@H](N)C(=O)O)C[C@H]1O[C@@H](n2cnc3c(N)ncnc32)[C@H](O)[C@@H]1O` (stereo partly drawn) [SAM, S-adenosyl-L-methionine] as the compound, how does the “reactivity as TM0936 substrate” value [1] read?
A: unable to catabolize; also recorded: inability to catabolize

Q: And the Km [2]?
A: 0.68 ± 0.2 µM

Q: What about the kcat [2] of the same compound?
A: 0.000861 s⁻¹
